Results as given in patent US20110262502A1, “PULMONARY DELIVERY OF 17-HYDROXYPROGESTERONE CAPROATE (17-HPC)” (Prairie Pharmaceuticals LLC, priority 2010, published 2011).
Read-outs that look alike come from different tables or passages of the source.

Tests used:
[1] = test system: PHA-induced IL-2 production in PBMCs; test: PHA-induced IL-2 production in PBMCs from healthy male smokers (no IL-2/IL-4 added), ELISA; format: cell-based, human; conditions: for inhibition at 0.01 µM / inhibition at 10 µM / inhibition at 0.0001 µM: Homo sapiens, PBMC
Description: PBMCs were isolated from human blood buffy coats provided by a regional blood center. Random buffy coat cells from male donors were a by-product of blood processed for clinical use and no details (i.e., personal identification and background) were provided except for tobacco use. […] PBMCs were separated using a porous high density polyethylene barrier (HISTOPAQUE from GEHealthcare Bio-Sciences AB (US). After centrifugation of blood samples in each tube (35 minutes at 800×g at room temperature, or RT), PBMCs were collected and washed twice with Hank's buffered saline solution (HBSS). PBMCs were resuspended in RPMI-1640 medium containing 10% fetal calf serum (FCS) and 15 mM glutamine and cells were counted and plated.
(§1) PBMCs (2×10^6) were incubated with or without IL-2 (13 ng/ml) and IL-4 (6.5 ng/ml) for 48 hours in RPMI-1640 medium containing 10% FCS and 2 mM glutamine. […] IL-2 and IL-4 stimulated PBMCs were also plated at a concentration of 10^6 cells/ml in 96-well plates ready for PHA (15 μg/mL, 24 hours) stimulation of cytokine release and detection by ELISA.
Serial dilutions of standards and PBMCs' supernatants were measured by enzyme linked immunosorbent assay to determine IL-2 at baseline and its levels after 17HPC, P4 and MAP treatments. Optical density was measured at 450 nm and corrected with 550 nm. The concentration of TL-2 was calculated using the standard curve and taking into account the supernatant dilution used. Detection limit for IL-2 is 4.0 pg/ml.
Data are expressed as mean±SD. The efficacies of the drug treatments were analyzed by paired t-test. One-way analysis of variance was used to compare three or more matched groups and 95% CI was performed to present groups differences. All graphs indicate mean values of results or % inhibition of PHA-stimulated IL-2. IC50 values were calculated by using a sigmoidal model (BioDataFit). A p value <0.05 was considered statistically significant.
(§2) IL-2 levels were quantified using ELISA.
IL-2 levels were quantified using ELISA. IC50 values were calculated by using a sigmoidal model (BioDataFit).
as §2, §2, §2

[2] = test system: PHA-induced IL-2 release in IL-2 and IL-4 treated (steroid resistant) PBMCs; test: IL-2/IL-4 induced steroid resistance model in PBMCs: dexamethasone inhibition of PHA-induced IL-2 release; format: cell-based, human; conditions: Dexamethasone 10^−10 M
Description: J Immunol 2009; 183; 164-171). […] Following PBMCs stimulation with mitogen phytohaemagglutinin (PHA), there is a strong correlation between cytokine secretion levels and steroid resistance as well as steroid sensitivity in vitro. Addition of IL-2, IL-4 and TNF-reduce steroid sensitivity.
as §1
IL-2/4 induced steroid resistance in PBMCs, a well-recognized study model, was used to evaluate potential modifiers of steroid resistance and sensitivity. PBMCs from healthy smokers were collected. Corticosteroid insensitivity or resistance was induced by adding IL-2 and IL-4 in peripheral blood mononuclear cells (PBMCs) from healthy male smokers (n=˜11). […] IL-2 levels were quantified using ELISA.
J Immunol 2009; 183; 164-171).
as §2

[3] = test system: patients with severe premenstrual exacerbations of asthma; conditions: intramuscular, added to regimen incl. corticosteroids; 3 cases; cited from earlier work
[4] = test system: mitogen-activated protein kinase; conditions: rat uterine smooth muscle; cited from earlier work
[5] = test system: females with severe asthma; conditions: sublingual; sixteen patients; cited from earlier work
[6] = read-out: % inhibition of PHA-induced IL-2 production
[7] = MPA 10^−5M + Dexamethasone 10E−8M
[8] = MPA 10^−8M + Dexamethasone 10E−8M
[9] = MPA 10^−8M + Dexamethasone 10E−11M
[10] = MPA 10^−10M + Dexamethasone 10E−8M
[11] = P4 10^−5M + Dexamethasone 10E−8M
[12] = P4 10^−8M + Dexamethasone 10E−8M
[13] = P4 10^−8M + Dexamethasone 10E−11M
[14] = P4 10^−10M + Dexamethasone 10E−8M

## CC(=O)O[C@]1(C(C)=O)CC[C@H]2[C@@H]3C[C@H](C)C4=CC(=O)CC[C@]4(C)[C@H]3CC[C@@]21C [MPA, MEDROXYPROGESTERONE ACETATE]
[1]
  inhibition at 0.01 µM: 78%
  inhibition at 10 µM: 95%
[1]; [6]
  inhibition at 0.0001 µM: 73%
[1]; read-out: IL-2 inhibition
  inhibition at 0.0001 µM: ≥ 86%
[1]; [7]
  % inhibition of PHA-induced IL-2 production: (98%)
  mean IL-2: 12.3 pg/mL
[1]; MPA 10^−5M, PHA, no Dexamethasone
  mean IL-2: 39.8 pg/mL
[1]; [8]
  % inhibition of PHA-induced IL-2 production: 96%
  mean IL-2: 29.2 pg/mL
[1]; [9]
  % inhibition of PHA-induced IL-2 production: (83%)
  mean IL-2: 129.1 pg/mL
[1]; MPA 10^−8M, PHA, no Dexamethasone
  mean IL-2: 166.9 pg/mL
[1]; [10]
  % inhibition of PHA-induced IL-2 production: (94%)
  mean IL-2: 44.7 pg/mL
[1]; MPA 10^−10M, PHA, no Dexamethasone
  mean IL-2: 206.1 pg/mL
[2]; FIG. 9
  improvement in corticosteroid sensitivity, responding sub-group: up to 58%
  reduction (worsening) in corticosteroid sensitivity, other sub-group: up to 88%

## CC(=O)[C@H]1CC[C@H]2[C@@H]3CCC4=CC(=O)CC[C@]4(C)[C@H]3CC[C@]12C [P4, Progesterone]
[3]
  effect on premenstrual fall in peak flow rate: eliminated the premenstrual dips in peak flow
[1]
  inhibition at 0.01 µM: 36%
  inhibition at 10 µM: 85%
[1]; [6]
  inhibition at 0.0001 µM: 34%
[1]; read-out: IL-2 inhibition
  inhibition at 0.0001 µM: ≥ 86%
[1]; [11]
  % inhibition of PHA-induced IL-2 production: (89%)
  mean IL-2: 81.2 pg/mL
[1]; P4 10^−5M, PHA, no Dexamethasone
  mean IL-2: 113.8 pg/mL
[1]; [12]
  % inhibition of PHA-induced IL-2 production: (88%)
  mean IL-2: 91.4 pg/mL
[1]; [13]
  % inhibition of PHA-induced IL-2 production: (87%)
  mean IL-2: 100.8 pg/mL
[1]; P4 10^−8M, PHA, no Dexamethasone
  mean IL-2: 486.2 pg/mL
[1]; [14]
  % inhibition of PHA-induced IL-2 production: (92%)
  mean IL-2: 59.6 pg/mL
[1]; P4 10^−10M, PHA, no Dexamethasone
  mean IL-2: 506.9 pg/mL
[4]
  effect on MAPK tyrosine phosphorylation and membrane-associated MAPK activity: increased MAPK tyrosine phosphorylation and membrane-associated MAPK activity
[2]; FIGS. 7-8
  subjects with more than 10% improvement in maximal Dexamethasone inhibition: 6 out of 8
[5]
  patients with an increase in both FEV1 and FVC: 50%
  patients with an increase of 27% or greater in PEF: 50%
  patients with bronchodilator effect (greater than 12% increase) in either FEV1 or FVC: 75%

## estradiol-17 beta [estrogen]
[4]
  effect on MAPK tyrosine phosphorylation and membrane-associated MAPK activity: increased MAPK tyrosine phosphorylation and membrane-associated MAPK activity
